Results reported in patent US20260315376A1, “NOVEL OPHTHALMIC COMPOSITION” (Cipla Limited, priority 2022, published 2026).
≈ marks a conversion by molar mass, not a printed value.

Columns and labels:
[1] = test system: Isolates from Bacterial Keratitis and/or Conjunctivitis; assay: In vitro proof of concept study, overall antibacterial activity; type: cell-based
Experimental: (§1) Example 3: In Vitro “Proof of Concept” Study of Effects of Plazomicin on Isolates from Bacterial Keratitis and/or Conjunctivitis
(§2) Isolates from patients diagnosed clinically with microbial keratitis were tested for antibacterial susceptibility against plazomicin agents using reference broth microdilution methods.
(§3) 21 grams of Muller Hinton broth powder was suspended in 1000 ml of distilled water.
(§4) Pure cultures of bacterial isolates were prepared in Blood Agar/Mueller Hinton agar from cryovials.
(§5) A standardized inoculum of 0.5 McFarland was prepared using direct colony suspension method.
(§6) 3-5 well isolated colonies were taken from 18-24 hour culture plate and suspended into 2 ml of sterile saline/Muller Hinton broth.
(§7) A homogenous suspension was made, and the turbidity was adjusted to 0.5McFarland turbidity standard (approximately 1*10^6-8 CFU/ml) using the Densitometer.
(§8) A 0.1 ml of standardized bacterial inoculum was added to 9.9 ml of sterile saline solution. (i.e., a 1:100 dilution).
(§9) A 96 well round bottomed plate was used for the Microbroth dilution assay. […]
(§10) The plate was incubated for 18-24 hours to read the Minimum Inhibitory Concentration (MIC).
(§11) Gram positive isolates evaluated: • 1. […]

MSSA = details: vs amikacin; cited from earlier work
S. hominis = assay: Broth microdilution antibacterial susceptibility (MIC), keratitis/conjunctivitis isolates; type: cell-based, Staphylococcus hominis; details: at ≤2 mcg/mL
Experimental: as §1, §2, §3, §4, §5, §6, §7, §8, §9, §10, §11

S. haemolyticus = assay: as above; type: cell-based, Staphylococcus haemolyticus; details: at ≤2 mcg/mL
Experimental: as §1, §2, §3, §4, §5, §6, §7, §8, §9, §10, §11

[2] = test system: species of Staphylococcus; details: cited from earlier work
[3] = test system: Enterobacterales isolates; assay: Broth microdilution antibacterial susceptibility (MIC), keratitis/conjunctivitis isolates; type: cell-based
Experimental: as §1, §2, §3, §4, §5, §6, §7, §8
(§12) A 96 well round bottomed plate was used for the Microbroth dilution assay.
(§13) A 100 μl of Muller Hinton broth containing drug concentrations from 0.125 mcg/ml to 64 mcg/ml (0.125 mcg/ml, 0.25 mcg/ml, 0.5 mcg/ml, 1 mcg/ml, 2 mcg/ml, 4 mcg/ml, 8 mcg/ml, 16 mcg/ml, 32 mcg/ml, and 64 mcg/ml) were added to the 96 well.
(§14) To this a 100 μl of the diluted bacterial inoculum (1:100) was added to each well with varying concentration of drugs. Each well contained 5*10^5 CFU/ml bacteria.
(§15) Growth control (Respective organism+Muller Hinton broth) and sterility control (Sterile Muller Hinton broth) were added to the 96 well plate.
as §10
(§16) • 1. Pseudomonas • 2. Klebsiella pneumoniae • 3. Klebsiella pneumoniae (ESBLs) • 4. Moraxella lacunata • 5. Haemophilus influenzae • 6. Proteus • 7. Serratia • 8. Enterobacter e.

Moraxella lacunata = assay: as above; type: cell-based; details: at ≤2 mcg/mL
Experimental: as §1, §2, §3, §4, §5, §6, §7, §8, §12, §13, §14, §15, §10, §16

Pseudomonas spp. = assay: as above; type: cell-based
Experimental: as §1, §2, §3, §4, §5, §6, §7, §8, §12, §13, §14, §15, §10, §16

Enterobacter spp. = assay: as above; type: cell-based; details: at ≤2 mcg/mL
Experimental: as §1, §2, §3, §4, §5, §6, §7, §8, §12, §13, §14, §15, §10, §16

S. epidermidis = assay: as above; type: cell-based, Staphylococcus epidermidis; details: at ≤2 mcg/mL
Experimental: as §1, §2, §3, §4, §5, §6, §7, §8, §9, §10, §11

MRSA = details: vs amikacin; cited from earlier work
conjunctival isolates = assay: Broth microdilution antibacterial susceptibility (MIC), conjunctival isolates; type: cell-based; details: ≤4 mcg/mL
Experimental: as §1, §2, §3, §4, §5, §6, §7, §8, §9, §10, §11

Corynebacterium = assay: Broth microdilution antibacterial susceptibility (MIC), keratitis/conjunctivitis isolates; type: cell-based; details: at ≤2 mcg/mL
Experimental: as §1, §2, §3, §4, §5, §6, §7, §8, §12, §13, §14, §15, §10
(§17) Gram positive isolates evaluated: • 1. Methicillin susceptible Staphylococcus aureus (MSSA) • 2. Methicillin resistant Staphylococcus aureus (MRSA) • 3. Staphylococcus epidermidis • 4. Staphylococcus hominis • 5. Staphylococcus haemolyticus • 6. Streptococcus pneumoniae • 7. Corynebacterium

[4] = test system: Methicillin susceptible Staphylococcus aureus (MSSA); assay: as above; type: cell-based
Experimental: as §1, §2, §3, §4, §5, §6, §7, §8, §12, §13, §14, §15, §10, §17

Staphylococcus spp. = assay: as above; type: cell-based
Experimental: as §1, §2, §3, §4, §5, §6, §7, §8, §12, §13, §14, §15, §10, §17

[5] = test system: Methicillin resistant Staphylococcus aureus (MRSA); assay: as above; type: cell-based
Experimental: as §1, §2, §3, §4, §5, §6, §7, §8, §12, §13, §14, §15, §10, §17

[6] = test system: Gram-negative enteric bacteria; details: cited from earlier work
[7] = Staphylococcus aureus, 18-24 hours incubation

CN[C@@H]1[C@@H](O)[C@@H](O[C@@H]2[C@@H](O)[C@H](O[C@H]3OC(CNCCO)=CC[C@H]3N)[C@@H](N)C[C@H]2NC(=O)[C@@H](O)CCN)OC[C@]1(C)O [Plazomicin]
antibacterial activity (conclusion) [1]: very good antibacterial activity | activity compared with amikacin (MSSA): greater activity than amikacin | activity (% of isolates) (S. hominis): 100% | activity (% of isolates) (S. haemolyticus): 100% | activity [2]: potent activity | isolates inhibited ([3]; at ≤2 mcg/mL): 61.5% | isolates inhibited ([3]; at ≤4 mcg/mL): 11.5% | activity (% of isolates) (Moraxella lacunata): 100% | showed activity for % of isolates (Pseudomonas spp.): 50% | MIC50 (Pseudomonas spp.; 18-24 hours incubation): 4 mg/L (≈ 6.75 µM) | MIC90 (Pseudomonas spp.; 18-24 hours incubation): 16 mg/L (≈ 27 µM) | activity (% of isolates) (Enterobacter spp.): 100% | activity (% of isolates) (S. epidermidis): 100% | activity compared with amikacin (MRSA): greater activity than amikacin | susceptibility of conjunctival isolates (conjunctival isolates): 100% | activity (% of isolates) (Corynebacterium): 100% | susceptible isolates [4]: 67.3% | MIC50 [4, 7]: 2 mg/L (≈ 3.37 µM) | MIC90 [4, 7]: 8 mg/L (≈ 13.5 µM) | isolates inhibited (Staphylococcus spp.; at ≤2 mcg/mL): 46% | isolates inhibited (Staphylococcus spp.; at ≤4 mcg/mL): 73.5% | isolates inhibited (Staphylococcus spp.; at ≤8 mcg/mL): 90.10% | susceptible isolates [5]: 60% | MIC50 [5, 7]: 2 mg/L (≈ 3.37 µM) | MIC90 [5, 7]: 8 mg/L (≈ 13.5 µM) | in vitro activity compared with amikacin, gentamicin and tobramycin [6]: more potent in vitro activity than amikacin, gentamicin and tobramycin
